According to publication PMC8847371 (Nature Communications, 2022):
“And” between values parts separate entries of the source, which are not always exact repeats. Equal values may be shown once.

Test system: SARS-CoV-2 B.1.1.7 (alpha variant)
Assay type: cell-based
Conditions: 3 µM

N#C[C@@]1(c2ccc3c(N)ncnn23)O[C@H](CO)[C@@H](O)[C@H]1O [GS-441524]
Log vRNA: 4 and 4.2 and 4.3
